# Reference: patent US20160346291A1, “COMPOSITIONS AND THERAPEUTIC METHODS FOR ACCELERATED PLAQUE REGRESSION” (Resverlogix Corp, priority 2013, published 2016)
# Tested on: ApoA-I mRNA
# Assay: ApoA-I mRNA quantitation in HepG2 cells (real-time PCR)
# Type: cell-based
# Design: key: Active: An active compound is one that causes a >15% increase in ApoA-I mRNA at a concentration less than or equal to 100 uM
# Details: concentration less than or equal to 100 uM, fold induction relative to DMSO control
# Procedure: At time of harvesting, the spent media was removed from the HepG2 cells and immediately placed on ice (for immediate use) or at −80° C. (for future use) in ApoA-I and albumin ELISAs. The cells remaining in the plate wells were rinsed in 200 μL PBS. PBS was carefully removed to avoid removing any loosely attached cells.
# Once the PBS was removed, 85 μL cell lysis solution was added to the cells in each well and incubated for 5-10 min at room temperature, to allow for complete cell lysis and detachment. mRNA was then prepared using the “mRNA Catcher PLUS plate” from Invitrogen, according to the protocol supplied. After the last wash, as much wash buffer as possible was aspirated without allowing the wells to dry. Elution Buffer (E3, 80 μL) was then added to each well. mRNA was then eluted by incubating the mRNA Catcher PLUS plate with Elution Buffer for 5 min at 68° C. and then immediately placing the plate on ice.
# The eluted mRNA was isolated and then used in a one-step real-time […]-PCR reaction, using components of the Ultra Sense Kit together with Applied Biosystems primer-probe mixes. Real-time PCR data was analyzed, using the Ct values, to determine the fold induction of each unknown sample, relative to the control (that is, relative to the control for each independent DMSO concentration).
# The following compounds of Formula I were evaluated in this assay. An active compound is one that causes a >15% increase in ApoA-I mRNA at a concentration less than or equal to 100 uM.
row,Structure (SMILES),Effect on ApoA-I mRNA levels
1,"Oc1ccc(-c2cc3ncccc3cn2)cc1 [4-(1,6-naphthyridin-7-yl)phenol]",Active
2,"N=C(N)NCCCC(N)C(=O)Oc1ccc(-c2cc3ccccc3c(=O)[nH]2)cc1 (stereo not drawn) [4-(1-Oxo-1,2-dihydroisoquinolin-3-yl)phenyl 2-amino-5-guanidinopentanoate]",Active
3,"COc1cc(OC)c2cnc(-c3cc(C)c(OCCN4CCOCC4)c(C)c3)cc2c1 [4-(2-(4-(6,8-dimethoxyisoquinolin-3-yl)-2,6-dimethylphenoxy)ethyl)morpholine]",Active
4,"CCOc1nc(-c2cc(C)c(O)c(C)c2)nc2cc(OC)cc(OC)c12 [4-(4-ethoxy-5,7-dimethoxyquinazolin-2-yl)-2,6-dimethylphenol]",Inactive
5,"COc1cc(OC)c2cnc(-c3cc(C)c(O)c(C)c3)cc2c1 [4-(6,8-dimethoxyisoquinolin-3-yl)-2,6-dimethylphenol]",Active
6,Cl.Cl.Cl.Cl.N=C(N)NCCCC(N)C(=O)Oc1ccc(-c2cc3ccccc3cn2)cc1 (stereo not drawn) [4-(Isoquinolin-3-yl)phenyl 2-amino-5-guanidinopentanoate tetrahydrochloride],Active
7,Oc1ccc(-c2cc3ccccc3cn2)cc1 [4-Isoquinolin-3-yl-phenol],Active
8,"COc1cc(OC)c2c(=O)[nH]c(-c3cc(C)c(OCCNS(=O)(=O)c4ccc(Cl)cc4)c(C)c3)nc2c1 [4-chloro-N-(2-(4-(5,7-dimethoxy-4-oxo-3,4-dihydroquinazolin-2-yl)-2,6-dimethylphenoxy)ethyl)benzenesulfonamide]",Active
9,"Cc1cc(-c2nc3cc(Cl)cc(Cl)c3c(=O)[nH]2)cc(C)c1OCCO [5,7-dichloro-2-(4-(2-hydroxyethoxy)-3,5-dimethylphenyl)quinazolin-4(3H)-one]",Active
10,"COc1cc(OC)c2c(=O)[nH]c(-c3cccc([N+](=O)[O-])c3)nc2c1 [5,7-dimethoxy-2-(3-nitrophenyl)quinazolin-4(3H)-one]",Inactive
11,"COCCOc1c(C)cc(-c2nc3cc(OC)cc(OC)c3c(=O)[nH]2)cc1C [5,7-dimethoxy-2-(4-(2-methoxyethoxy)-3,5-dimethylphenyl)quinazolin-4(3H)-one]",Active
12,"COc1cc(OC)c2c(=O)[nH]c(-c3ccc(N4CCN(C)CC4)cc3)nc2c1 [5,7-dimethoxy-2-(4-(4-methylpiperazin-1-yl)phenyl)quinazolin-4(3H)-one]",Active
13,"COc1cc(OC)c2c(=O)[nH]c(-c3ccc(CN4CCN(C)CC4)cc3)nc2c1 [5,7-dimethoxy-2-(4-((4-methylpiperazin-1-yl)methyl)phenyl)quinazolin-4(3H)-one]",Active
14,"COc1cc(OC)c2c(=O)[nH]c(-c3ccc(CN4CCOCC4)cc3)nc2c1 [5,7-dimethoxy-2-(4-(morpholinomethyl)phenyl)quinazolin-4(3H)-one]",Active
15,"COc1cc(OC)c2c(=O)[nH]c(-c3cc(C)c(OC)c(C)c3)nc2c1 [5,7-dimethoxy-2-(4-methoxy-3,5-dimethylphenyl)quinazolin-4(3H)-one]",Active
16,"COc1cc(OC)c2c(=O)[nH]c(-c3ccc(OC)c(CN4CCOCC4)c3)nc2c1 [5,7-dimethoxy-2-(4-methoxy-3-(morpholinomethyl)phenyl)quinazolin-4(3H)-one]",Active
17,"COc1ccc(-c2nc3cc(OC)cc(OC)c3c(=O)[nH]2)cc1 [5,7-dimethoxy-2-(4-methoxyphenyl)quinazolin-4(3H)-one]",Active
18,"COc1cc(OC)c2c(=O)[nH]c(-c3ccc(N4CCOCC4)cc3)nc2c1 [5,7-dimethoxy-2-(4-morpholinophenyl)quinazolin-4(3H)-one]",Active
19,"COc1cc(OC)c2c(=O)[nH]c(-c3cccc(-c4ccc(S(C)(=O)=O)cc4)n3)nc2c1 [5,7-dimethoxy-2-(6-(4-(methylsulfonyl)phenyl)pyridin-2-yl)quinazolin-4(3H)-one]",Active
20,"COc1cc(OC)c2c(=O)[nH]c(-c3cccc(-c4ccc(SC)cc4)n3)nc2c1 [5,7-dimethoxy-2-(6-(4-(methylthio)phenyl)pyridin-2-yl)quinazolin-4(3H)-one]",Active

row,Structure (SMILES),Effect on ApoA-I mRNA levels
1,"COc1cc(OC)c2c(=O)[nH]c(-c3cccc(C)n3)nc2c1 [5,7-dimethoxy-2-(6-methylpyridin-2-yl)quinazolin-4(3H)-one]",Active
2,"COc1cc(OC)c2c(=O)[nH]c(-c3ccccn3)nc2c1 [5,7-dimethoxy-2-(pyridin-2-yl)quinazolin-4(3H)-one]",Active
3,"COc1cc(OC)c2c(=O)[nH]c(-c3ccncc3)nc2c1 [5,7-dimethoxy-2-(pyridin-4-yl)quinazolin-4(3H)-one]",Active
4,"COc1cc(OC)c2c(=O)[nH]c(-c3ccccc3C)nc2c1 [5,7-dimethoxy-2-o-tolylquinazolin-4(3H)-one]",Active
5,"COc1cc(OC)c2c(=O)[nH]c(-c3ccc(C)cc3)nc2c1 [5,7-dimethoxy-2-p-tolylquinazolin-4(3H)-one]",Inactive
6,"COc1cc(O)c2c(=O)[nH]c(-c3cc(C)c(O)c(C)c3)nc2c1 [5-hydroxy-2-(4-hydroxy-3,5-dimethylphenyl)-7-methoxyquinazolin-4(3H)-one]",Active
7,"COc1cc2c(c(OC)c1)S(=O)(=O)NC(c1cc(C)c(O)c(C)c1)=C2 [6,8-dimethoxy-3-(4-hydroxy-3,5-dimethylphenyl)-2H-1,2-benzothiazine-1,1-dioxide]",Active
8,"Cc1cc(-c2nc3ccc(Br)cc3c(=O)[nH]2)cc(C)c1OCCO[Si](C)(C)C(C)(C)C [6-bromo-2-(4-(2-(tert-butyldimethylsilyloxy)ethoxy)-3,5-dimethylphenyl)quinazolin-4(3H)-one]",Active
9,"Cc1cc(-c2nc3ccc(Br)cc3c(=O)[nH]2)cc(C)c1OCCO [6-bromo-2-(4-(2-hydroxyethoxy)-3,5-dimethylphenyl)quinazolin-4(3H)-one]",Active
10,"Cc1cc(-c2nc3ccc(Br)cc3c(=O)[nH]2)cc(C)c1O [6-bromo-2-(4-hydroxy-3,5-dimethylphenyl)quinazolin-4(3H)-one]",Active
11,"COc1cc(OC)c2c(=O)[nH]c(-c3cc(C)c(OCCN4CCOCC4)c(C)c3)cc2n1 [7-(3,5-dimethyl-4-(2-morpholinoethoxy)phenyl)-2,4-dimethoxy-1,6-naphthyridin-5(6H)-one]",Active
12,"COc1cc(OC)c2c(=O)[nH]c(-c3cc(C)c(OCCO)c(C)c3)cc2n1 [7-(4-(2-hydroxyethoxy)-3,5-dimethylphenyl)-2,4-dimethoxy-1,6-naphthyridin-5(6H)-one]",Active
13,"Cc1cc(-c2cc3ncccc3c(=O)[nH]2)cc(C)c1O [7-(4-hydroxy-3,5-dimethylphenyl)-1,6-naphthyridin-5(6H)-one]",Active
14,"Cc1cc(-c2cc3nc(OC(C)C)cc(OC(C)C)c3c(=O)[nH]2)cc(C)c1O [7-(4-hydroxy-3,5-dimethylphenyl)-2,4-diisopropoxy-1,6-naphthyridin-5(6H)-one]",Active
15,"COc1cc(OC)c2c(=O)[nH]c(-c3cc(C)c(O)c(C)c3)cc2n1 [7-(4-hydroxy-3,5-dimethylphenyl)-2,4-dimethoxy-1,6-naphthyridin-5(6H)-one]",Active
16,"COc1cc(OC)c2c(=O)[nH]c(-c3cc(C)c(/N=C/N(C)C)c(C)c3)nc2c1 [(E)-N′-(4-(5,7-dimethoxy-4-oxo-3,4-dihydroquinazolin-2-yl)-2,6-dimethylphenyl)-N,N-dimethylformimidamide]",Active
17,"CNC(=O)c1ccccc1C(=O)NCCOc1c(C)cc(-c2nc3cc(OC)cc(OC)c3c(=O)[nH]2)cc1C [N1-(2-(4-(5,7-dimethoxy-4-oxo-3,4-dihydroquinazolin-2-yl)-2,6-dimethylphenoxy)ethyl)-N2-methylphthalamide]",Active
18,"CC(=O)Nc1ccc2nc(-c3cc(C)c(OCCO)c(C)c3)[nH]c(=O)c2c1 [N-(2-(4-(2-hydroxyethoxy)-3,5-dimethylphenyl)-4-oxo-3,4-dihydroquinazolin-6-yl)acetamide]",Active
19,"COc1cc(OC)c2c(=O)[nH]c(-c3cc(C)c(OCCNC(=O)c4ccc(C)cc4)c(C)c3)nc2c1 [N-(2-(4-(5,7-Dimethoxy-4-oxo-3,4-dihydroquinazolin-2-yl)-2,6-dimethylphenoxy)ethyl)-4-methylbenzamide]",Active
